According to ChEMBL document CHEMBL1629430, “2'-deoxy-2'-α-fluoro-2'-β-C-methyl 3',5'-cyclic phosphate nucleotide prodrug analogs as inhibitors of HCV NS5B polymerase: discovery of PSI-352938” (Bioorg Med Chem Lett, 2010):

Key:
Hepatitis C virus [1] = assay: Antiviral activity against Hepatitis C virus -infected in human HuH7 cells; type: functional, Hepacivirus hominis, Huh-7
[2] = Cytotoxicity against human HuH7 cells; type: cell-based, Huh-7
[3] = Half life of the compound in simulated gastrointestinal fluid; type: physicochemical; settings: read-out: Stability (converted)
[4] = Half life of the compound in simulated intestinal fluid; type: physicochemical; settings: for half-life: simulated intestinal fluid, read-out: Stability
[5] = Half life in human plasma; type: ADME, cell-free; settings: read-out: Stability (converted)
[6] = Half life in human liver S9 fraction; type: ADME, subcellular; settings: read-out: Stability (converted)
Hepatitis C virus [7] = assay: Antiviral activity against wild-type Hepatitis C virus -infected in human HuH7 cells; type: functional, Hepacivirus hominis, Huh-7
Hepatitis C virus [8] = assay: Antiviral activity against Hepatitis C virus harboring NS5B S282T mutant -infected in human HuH7 cells; type: functional, Hepacivirus hominis, Huh-7
[9] = Cytotoxicity against human HepG2 cells; type: cell-based
[10] = Cytotoxicity against human BxPC3 cells; type: cell-based, BXPC-3
[11] = Cytotoxicity against human CEM cells; type: cell-based; settings: CEM cells (CCRF-CEM)
[12] = Mitochondrial toxicity in human CEM cells; type: cell-based; settings: CEM cells (CCRF-CEM)
[13] = Mitochondrial toxicity in human HepG2 cells; type: cell-based
[14] = Drug level in Hepatitis C virus -infected human HuH7 cells assessed as cellular triphosphate level at 100 uM after 72 hrs by HPLC method; type: ADME, cell-based; settings: huh-7, 72 h
Hepatocyte = assay: Drug level in human hepatocytes assessed as cellular triphosphate level at 100 uM after 72 hrs by HPLC method; type: ADME, cell-based
Rattus norvegicus [15] = assay: Cmax in rat liver assessed as 2'-Deoxy-2'-alpha-F-2'-beta-C-methyl guanosine triphosphate level at 50 mg/kg, po; type: ADME, organism-based; parameters: dose 50 mg/kg, route oral; settings: in vivo
Rattus norvegicus [16] = assay: AUC (0 to 24 hrs) in rat liver assessed as 2'-Deoxy-2'-alpha-F-2'-beta-C-methyl guanosine triphosphate level at 50 mg/kg, po; type: ADME, organism-based; parameters: time < 24 hr, dose 50 mg/kg, route oral; settings: in vivo
Liver = assay: AUC (0 to 24 hrs) in rat liver; type: ADME, tissue-based; parameters: time < 24 hr; settings: in vivo
[17] = target: RNA-directed RNA polymerase (Hepacivirus hominis, UniProt O39930); assay: Inhibition of HCV NS5B polymerase
RNA-directed RNA polymerase, sequence (O39930 whole entry): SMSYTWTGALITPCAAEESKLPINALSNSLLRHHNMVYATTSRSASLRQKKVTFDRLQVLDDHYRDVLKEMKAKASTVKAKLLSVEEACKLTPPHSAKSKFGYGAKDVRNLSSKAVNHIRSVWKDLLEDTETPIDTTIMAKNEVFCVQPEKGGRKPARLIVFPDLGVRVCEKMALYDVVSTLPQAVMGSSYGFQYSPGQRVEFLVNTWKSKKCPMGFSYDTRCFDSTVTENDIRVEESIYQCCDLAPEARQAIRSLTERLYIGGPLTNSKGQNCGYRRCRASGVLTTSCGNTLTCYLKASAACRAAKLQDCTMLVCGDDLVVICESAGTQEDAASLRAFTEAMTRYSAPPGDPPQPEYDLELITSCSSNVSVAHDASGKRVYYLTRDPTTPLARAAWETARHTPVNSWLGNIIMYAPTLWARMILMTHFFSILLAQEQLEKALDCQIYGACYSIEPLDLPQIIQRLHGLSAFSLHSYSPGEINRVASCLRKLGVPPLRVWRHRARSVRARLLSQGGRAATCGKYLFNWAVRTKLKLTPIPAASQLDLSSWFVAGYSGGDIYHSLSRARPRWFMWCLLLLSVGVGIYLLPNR

SMILES: COP1(=O)OC[C@H]2O[C@@H](n3cnc4c(OCc5ccccc5)nc(N)nc43)[C@](C)(F)[C@@H]2O1 (stereo partly drawn)
- EC90 (Hepatitis C virus [1]; Hepatitis C virus, Huh-7): 5.05 µM

SMILES: CO[P@@]1(=O)OC[C@H]2O[C@@H](n3cnc4c(O)nc(N)nc43)[C@](C)(F)[C@@H]2O1
- EC90 (Hepatitis C virus [1]; Hepatitis C virus, Huh-7): 11.8 µM
- CC50 [2]: > 65 µM

SMILES: C[C@@]1(F)[C@@H]2O[P@@](=O)(OC3CCC3)OC[C@H]2O[C@H]1n1cnc2c(N3CCC3)nc(N)nc21
- EC90 (Hepatitis C virus [1]; Hepatitis C virus, Huh-7): 7.3 µM

SMILES: CCOc1nc(N)nc2c1ncn2[C@@H]1O[C@@H]2COP(=O)(Oc3ccccc3)O[C@H]2[C@@]1(C)F (stereo partly drawn)
- EC90 (Hepatitis C virus [1]; Hepatitis C virus, Huh-7): 1.72 µM

SMILES: CCCCNc1nc(N)nc2c1ncn2[C@@H]1O[C@@H]2COP(=O)(OC(C)C)O[C@H]2[C@@]1(C)F (single isomer, unassigned)
- EC90 (Hepatitis C virus [1]; Hepatitis C virus, Huh-7): 9.28 µM

SMILES: C[C@@]1(F)[C@H](O)[C@@H](CO)O[C@H]1n1cnc2c(O)nc(N)nc21
- EC90 (Hepatitis C virus [1]; Hepatitis C virus, Huh-7): 69 µM

SMILES: COP1(=O)OC[C@H]2O[C@@H](n3cnc4c(N5CCC5)nc(N)nc43)[C@](C)(F)[C@@H]2O1 (stereo partly drawn)
- EC90 (Hepatitis C virus [1]; Hepatitis C virus, Huh-7): 0.98 µM
- CC50 [2]: > 30 µM
- half-life [3]: > 20 h
- half-life [4]: > 20 h
- half-life [5]: 8.33 h
- half-life [6]: 2.53 h
- EC90 (Hepatitis C virus [7]; Hepatitis C virus, Huh-7): 0.98 µM
- EC90 (Hepatitis C virus [8]; Hepatitis C virus, Huh-7): 1.53 µM
- CC50 [9]: > 100 µM
- CC50 [10]: > 100 µM
- CC50 [11]: > 100 µM
- CC50 [12]: > 100 µM
- CC50 [13]: > 100 µM

SMILES: CCCCNc1nc(N)nc2c1ncn2[C@@H]1O[C@@H]2COP(=O)(Oc3ccccc3)O[C@H]2[C@@]1(C)F (single isomer, unassigned)
- EC90 (Hepatitis C virus [1]; Hepatitis C virus, Huh-7): 4.76 µM

SMILES: CC(C)O[P@@]1(=O)OC[C@H]2O[C@@H](n3cnc4c(N5CCC5)nc(N)nc43)[C@](C)(F)[C@@H]2O1
- EC90 (Hepatitis C virus [1]; Hepatitis C virus, Huh-7): 18.6 µM

SMILES: CCO[P@@]1(=O)OC[C@H]2O[C@@H](n3cnc4c(N5CCC5)nc(N)nc43)[C@](C)(F)[C@@H]2O1
- EC90 (Hepatitis C virus [1]; Hepatitis C virus, Huh-7): 69.2 µM

SMILES: C[C@@]1(F)[C@@H]2O[P@@](=O)(Oc3ccccc3)OC[C@H]2O[C@H]1n1cnc2c(N3CCC3)nc(N)nc21
- EC90 (Hepatitis C virus [1]; Hepatitis C virus, Huh-7): 7.7 µM

SMILES: CCCOc1nc(N)nc2c1ncn2[C@@H]1O[C@@H]2CO[P@](=O)(OCCC)O[C@H]2[C@@]1(C)F (stereo in doubt; 26b)
- EC90 (Hepatitis C virus [1]): 5.27 µM
- CC50 [2]: > 11 µM

SMILES: CCCOc1nc(N)nc2c1ncn2[C@@H]1O[C@@H]2CO[P@](=O)(OCCC)O[C@H]2[C@@]1(C)F (stereo in doubt; 26a)
- EC90 (Hepatitis C virus [1]): 23.8 µM

SMILES: COP1(=O)OC[C@H]2O[C@@H](n3cnc4c(NC5CCC5)nc(N)nc43)[C@](C)(F)[C@@H]2O1 (stereo partly drawn)
- EC90 (Hepatitis C virus [1]; Hepatitis C virus, Huh-7): 1.56 µM

SMILES: COP1(=O)OC[C@H]2O[C@@H](n3cnc4c(NC5CCCC5)nc(N)nc43)[C@](C)(F)[C@@H]2O1 (stereo partly drawn)
- EC90 (Hepatitis C virus [1]; Hepatitis C virus, Huh-7): 7.2 µM

SMILES: CCOc1nc(N)nc2c1ncn2[C@@H]1O[C@@H]2COP(=O)(OC)O[C@H]2[C@@]1(C)F (stereo partly drawn)
- EC90 (Hepatitis C virus [1]; Hepatitis C virus, Huh-7): 0.41 µM
- CC50 [2]: > 30 µM
- half-life [3]: > 20 h
- half-life [4]: > 20 h
- half-life [5]: 8.88 h
- half-life [6]: > 24 h
- EC90 (Hepatitis C virus [7]; Hepatitis C virus, Huh-7): 0.41 µM
- EC90 (Hepatitis C virus [8]; Hepatitis C virus, Huh-7): 0.4 µM
- CC50 [9]: 95 µM
- CC50 [10]: > 100 µM
- CC50 [11]: > 100 µM
- CC50 [12]: > 100 µM
- CC50 [13]: > 100 µM
- Drug uptake [14]: 0.08 mM
- Drug uptake (Hepatocyte): 0.12 mM
- Cmax (Rattus norvegicus [15]): 613 ng/g
- AUC (Rattus norvegicus [16]): 4090 ng·h/g
- AUC (Liver): 8310 ng·h/g

SMILES: CCOc1nc(N)nc2c1ncn2[C@@H]1O[C@@H]2CO[P@](=O)(OC(C)C)O[C@H]2[C@@]1(C)F (stereo in doubt; 24b)
- EC90 (Hepatitis C virus [1]): 0.69 µM
- Stability ([4]; simulated gi fluid): 18 h
- EC90 (Hepatitis C virus [7]): 0.69 µM
- EC90 (Hepatitis C virus [8]): 0.86 µM

SMILES: CC(C)C(=O)OC[C@H]1O[C@@H](n2ccc(N)nc2=O)[C@](C)(F)[C@@H]1OC(=O)C(C)C [MERICITABINE]
- EC90 (Hepatitis C virus [1]; Hepatitis C virus, Huh-7): 3.9 µM
- CC50 [2]: > 100 µM

SMILES: CCCOc1nc(N)nc2c1ncn2[C@@H]1O[C@@H]2COP(=O)(OC)O[C@H]2[C@@]1(C)F (stereo partly drawn)
- EC90 (Hepatitis C virus [1]; Hepatitis C virus, Huh-7): 0.83 µM
- CC50 [2]: > 30 µM

SMILES: CCCCNc1nc(N)nc2c1ncn2[C@@H]1O[C@@H]2COP(=O)(OCC)O[C@H]2[C@@]1(C)F (single isomer, unassigned)
- EC90 (Hepatitis C virus [1]; Hepatitis C virus, Huh-7): 48.1 µM

SMILES: CCCNc1nc(N)nc2c1ncn2[C@@H]1O[C@@H]2COP(=O)(OC)O[C@H]2[C@@]1(C)F (stereo partly drawn)
- EC90 (Hepatitis C virus [1]; Hepatitis C virus, Huh-7): 0.92 µM
- CC50 [2]: > 30 µM
- half-life [3]: 4 h
- half-life [4]: > 20 h
- half-life [5]: 15.7 h
- half-life [6]: > 24 h
- EC90 (Hepatitis C virus [7]; Hepatitis C virus, Huh-7): 0.92 µM
- EC90 (Hepatitis C virus [8]; Hepatitis C virus, Huh-7): 3.08 µM
- CC50 [9]: > 100 µM
- CC50 [10]: > 100 µM
- CC50 [11]: > 100 µM
- CC50 [12]: > 100 µM
- CC50 [13]: 14 µM

SMILES: C[C@@]1(F)[C@H](O)[C@@H](COP(=O)(O)OP(=O)(O)OP(=O)(O)O)O[C@H]1n1cnc2c(=O)[nH]c(N)nc21 [PSI-352666]
- CC50 [2]: > 100 µM
- IC50 [17]: 5.94 µM

SMILES: CCOc1nc(N)nc2c1ncn2[C@@H]1O[C@@H]2CO[P@](=O)(OC(C)C)O[C@H]2[C@@]1(C)F (stereo in doubt; 24a)
- EC90 (Hepatitis C virus [1]; Hepatitis C virus, Huh-7): 1.37 µM
- CC50 [2]: > 100 µM
- half-life [3]: > 20 h
- half-life [4]: > 20 h
- half-life [5]: > 24 h
- half-life [6]: > 24 h
- EC90 (Hepatitis C virus [7]; Hepatitis C virus, Huh-7): 1.37 µM
- EC90 (Hepatitis C virus [8]; Hepatitis C virus, Huh-7): 1.61 µM
- CC50 [9]: > 100 µM
- CC50 [10]: > 100 µM
- CC50 [11]: > 100 µM
- CC50 [12]: > 100 µM
- CC50 [13]: > 100 µM
- Drug uptake [14]: 0.41 mM
- Drug uptake (Hepatocyte): 0.59 mM
- AUC (Rattus norvegicus [16]): 41893 ng·h/g
- AUC (Liver): 13234 ng·h/g
